Measured values taken from PubChem BioAssay (NCI).
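Protocol summary: plate cells (96-well), add compound at 5 concentrations, incubate 48 h, interpolate endpoints linearly. The concentration for full growth arrest is given as TGI.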

Legend:
Test in all cases: inhibition of tumour cell growth, NCI panel, 48 h
UACC-62 melanoma = tested on: UACC-62 melanoma
CCRF-CEM leukemia = tested on: CCRF-CEM leukemia
HT29 colon = tested on: HT29 colon
SW-620 colon = tested on: SW-620 colon
CAKI-1 renal = tested on: CAKI-1 renal
MDA-MB-231 breast = tested on: MDA-MB-231 breast
T-47D breast = tested on: T-47D breast
U251 CNS = tested on: U251 CNS
SF-268 CNS = tested on: SF-268 CNS
SK-MEL-5 melanoma = tested on: SK-MEL-5 melanoma
A498 renal = tested on: A498 renal
KM12 colon = tested on: KM12 colon
DU-145 prostate = tested on: DU-145 prostate
BT-549 breast = tested on: BT-549 breast
NCI-H23 lung = tested on: NCI-H23 lung
M14 melanoma = tested on: M14 melanoma
PC-3 prostate = tested on: PC-3 prostate
HCT-15 colon = tested on: HCT-15 colon
EKVX NSCLC = tested on: EKVX NSCLC
HOP-92 NSCLC = tested on: HOP-92 NSCLC
SF-539 CNS = tested on: SF-539 CNS
SNB-19 CNS = tested on: SNB-19 CNS
SK-MEL-28 melanoma = tested on: SK-MEL-28 melanoma
SK-MEL-2 melanoma = tested on: SK-MEL-2 melanoma
HCT-116 colon = tested on: HCT-116 colon
HCC-2998 colon = tested on: HCC-2998 colon
HS 578T breast = tested on: HS 578T breast
SNB-75 CNS = tested on: SNB-75 CNS
HL-60(TB) leukemia = tested on: HL-60(TB) leukemia
OVCAR-5 ovarian = tested on: OVCAR-5 ovarian
OVCAR-8 ovarian = tested on: OVCAR-8 ovarian
OVCAR-4 ovarian = tested on: OVCAR-4 ovarian
OVCAR-3 ovarian = tested on: OVCAR-3 ovarian
IGROV1 ovarian = tested on: IGROV1 ovarian
NCI/ADR-RES ovarian = tested on: NCI/ADR-RES ovarian
RXF 393 renal = tested on: RXF 393 renal
SK-OV-3 ovarian = tested on: SK-OV-3 ovarian
SF-295 CNS = tested on: SF-295 CNS
LOX IMVI melanoma = tested on: LOX IMVI melanoma
K-562 leukemia = tested on: K-562 leukemia
HOP-62 NSCLC = tested on: HOP-62 NSCLC
MDA-MB-435 = tested on: MDA-MB-435
A549 NSCLC = tested on: A549 NSCLC
MCF7 breast = tested on: MCF7 breast
786-0 renal = tested on: 786-0 renal
MDA-N = tested on: MDA-N
RPMI-8226 leukemia = tested on: RPMI-8226 leukemia
COLO 205 colon = tested on: COLO 205 colon
SN12C renal = tested on: SN12C renal
MOLT-4 leukemia = tested on: MOLT-4 leukemia
UACC-257 melanoma = tested on: UACC-257 melanoma
MALME-3M melanoma = tested on: MALME-3M melanoma
SR leukemia = tested on: SR leukemia
NCI-H522 lung = tested on: NCI-H522 lung
UO-31 renal = tested on: UO-31 renal
TK-10 renal = tested on: TK-10 renal
ACHN renal = tested on: ACHN renal

CC(C)CCCC(C)[C@H]1CC[C@H]2[C@@H]3CC[C@H]4C[C@@H](CCC=C(c5cc(Cl)c(O)c(C(=O)OC(C)C)c5)c5cc(Cl)c(O)c(C(=O)OC(C)C)c5)CC[C@]4(C)[C@H]3CC[C@]12C (some centres not stated)
TGI (UACC-62 melanoma): > 50 µM | TGI (CCRF-CEM leukemia): > 50 µM | TGI (HT29 colon): > 50 µM | TGI (SW-620 colon): > 50 µM | TGI (CAKI-1 renal): > 50 µM | TGI (MDA-MB-231 breast): > 50 µM | TGI (T-47D breast): > 50 µM | TGI (U251 CNS): > 50 µM | TGI (SF-268 CNS): > 50 µM | TGI (SK-MEL-5 melanoma): > 50 µM | TGI (A498 renal): > 50 µM | TGI (KM12 colon): > 50 µM | TGI (DU-145 prostate): > 50 µM | TGI (BT-549 breast): > 50 µM | TGI (NCI-H23 lung): > 50 µM | TGI (M14 melanoma): > 50 µM | TGI (PC-3 prostate): > 50 µM | TGI (HCT-15 colon): > 50 µM | TGI (EKVX NSCLC): > 50 µM | TGI (HOP-92 NSCLC): > 50 µM | TGI (SF-539 CNS): > 50 µM | TGI (SNB-19 CNS): > 50 µM | TGI (SK-MEL-28 melanoma): > 50 µM | TGI (SK-MEL-2 melanoma): > 50 µM | TGI (HCT-116 colon): > 50 µM | TGI (HCC-2998 colon): > 50 µM | TGI (HS 578T breast): > 50 µM | TGI (SNB-75 CNS): > 50 µM | TGI (HL-60(TB) leukemia): > 50 µM | TGI (OVCAR-5 ovarian): > 50 µM | TGI (OVCAR-8 ovarian): > 50 µM | TGI (OVCAR-4 ovarian): > 50 µM | TGI (OVCAR-3 ovarian): > 50 µM | TGI (IGROV1 ovarian): > 50 µM | TGI (NCI/ADR-RES ovarian): > 50 µM | TGI (RXF 393 renal): > 50 µM | TGI (SK-OV-3 ovarian): > 50 µM | TGI (SF-295 CNS): > 50 µM | TGI (LOX IMVI melanoma): > 50 µM | TGI (K-562 leukemia): > 50 µM | TGI (HOP-62 NSCLC): > 50 µM | TGI (MDA-MB-435): > 50 µM | TGI (A549 NSCLC): > 50 µM | TGI (MCF7 breast): > 50 µM | TGI (786-0 renal): > 50 µM | TGI (MDA-N): > 50 µM | TGI (RPMI-8226 leukemia): > 50 µM | TGI (COLO 205 colon): > 50 µM | TGI (SN12C renal): > 50 µM | TGI (MOLT-4 leukemia): > 50 µM

C(=Nc1ccc(-c2nc3ccccc3[nH]2)cc1)c1ccc[nH]1
TGI (UACC-62 melanoma): > 100 µM | TGI (CCRF-CEM leukemia): 85.1 µM | TGI (HT29 colon): > 100 µM | TGI (SW-620 colon): > 100 µM | TGI (CAKI-1 renal): > 100 µM | TGI (UACC-257 melanoma): > 100 µM | TGI (MALME-3M melanoma): > 100 µM | TGI (T-47D breast): > 100 µM | TGI (SF-268 CNS): > 100 µM | TGI (SK-MEL-5 melanoma): > 100 µM | TGI (A498 renal): > 100 µM | TGI (KM12 colon): > 100 µM | TGI (DU-145 prostate): > 100 µM | TGI (BT-549 breast): > 100 µM | TGI (NCI-H23 lung): > 100 µM | TGI (M14 melanoma): > 100 µM | TGI (PC-3 prostate): > 100 µM | TGI (HCT-15 colon): > 100 µM | TGI (EKVX NSCLC): > 100 µM | TGI (HOP-92 NSCLC): > 100 µM | TGI (SF-539 CNS): > 100 µM | TGI (SK-MEL-28 melanoma): > 100 µM | TGI (SK-MEL-2 melanoma): > 100 µM | TGI (HCT-116 colon): > 100 µM | TGI (SR leukemia): > 100 µM | TGI (HCC-2998 colon): > 100 µM | TGI (HS 578T breast): > 100 µM | TGI (SNB-75 CNS): > 100 µM | TGI (HL-60(TB) leukemia): 20.1 µM | TGI (NCI-H522 lung): > 100 µM | TGI (OVCAR-5 ovarian): > 100 µM | TGI (OVCAR-8 ovarian): > 100 µM | TGI (OVCAR-4 ovarian): > 100 µM | TGI (OVCAR-3 ovarian): > 100 µM | TGI (IGROV1 ovarian): > 100 µM | TGI (NCI/ADR-RES ovarian): > 100 µM | TGI (RXF 393 renal): > 100 µM | TGI (LOX IMVI melanoma): > 100 µM | TGI (K-562 leukemia): > 100 µM | TGI (HOP-62 NSCLC): > 100 µM | TGI (MDA-MB-435): > 100 µM | TGI (A549 NSCLC): > 100 µM | TGI (MCF7 breast): > 100 µM | TGI (UO-31 renal): > 100 µM | TGI (786-0 renal): > 100 µM | TGI (MDA-N): > 100 µM | TGI (RPMI-8226 leukemia): > 100 µM | TGI (TK-10 renal): > 100 µM | TGI (COLO 205 colon): > 100 µM | TGI (SN12C renal): > 100 µM | TGI (MOLT-4 leukemia): > 100 µM | TGI (ACHN renal): > 100 µM
